Source: patent US20050113450A1, “Antibacterial agents” (priority 2002, published 2005)
In brackets after ≈: the same amount, converted by molar mass.

The compounds below were run on SA 9218 (assay: MIC by standard agar dilution method). Conditions: Mueller Hinton agar, 10^4 to 10^5 cells per spot, incubated overnight at 35° C., lowest concentration that inhibits visible growth.
Assay type: cell-based
In short: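 MIC read after overnight 35 °C incubation as lowest drug level preventing visible growth. Inoculum of roughly 10^4–10^5 cells per spot (0.5 McFarland, 1:20 in TSB) applied to Mueller Hinton agar containing serial 2-fold compound dilutions.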

Row | MIC | SA 9218 MIC | SMILES
1 | 64 µg/mL (≈ 126 µM) |  | O=C(Nc1ccc(Br)cc1C(=O)O)c1cccc(S(=O)(=O)NCCCn2ccnc2)c1
2 | 64 µg/mL (≈ 108 µM) |  | O=C(Nc1ccc(Br)cc1C(=O)O)c1ccc(Br)c(S(=O)(=O)NC2Cc3ccccc3C2)c1
3 | 0.5 µg/mL (≈ 1.31 µM) |  | CCSc1ccc(C(=O)Nc2ccc(Br)cc2C(=O)O)cc1
4 | 8 µg/mL (≈ 20.4 µM) |  | CCCCOc1ccc(C(=O)Nc2ccc(Br)cc2C(=O)O)cc1
5 | 32 µg/mL (≈ 82.4 µM) |  | O=C(Nc1ccc(Br)cc1C(=O)O)c1ccc(C(F)(F)F)cc1
6 | 2 µg/mL (≈ 5.46 µM) |  | CSc1ccc(C(=O)Nc2ccc(Br)cc2C(=O)O)cc1
7 | > 128 µg/mL |  | C=Cc1ccc(C(=O)Nc2ccc(Br)cc2C(=O)O)cc1
8 | 32 µg/mL (≈ 84.6 µM) |  | COC(=O)c1ccc(C(=O)Nc2ccc(Br)cc2C(=O)O)cc1
9 | 32 µg/mL (≈ 82.4 µM) |  | O=C(O)c1cc(Br)ccc1NC(=O)c1ccc(F)c2ccccc12
10 | > 128 µg/mL |  | COc1cc(C(=O)Nc2ccc(Br)cc2C(=O)O)ccc1C
11 | 16 µg/mL (≈ 43.9 µM) |  | O=C(Nc1ccc(Br)cc1C(=O)O)c1ccc2c(c1)OCO2
12 | 32 µg/mL (≈ 86.4 µM) |  | O=C(O)c1cc(Br)ccc1NC(=O)c1cccc2ccccc12
13 | 128 µg/mL (≈ 351 µM) |  | O=C(Nc1ccc(Br)cc1C(=O)O)c1cccc([N+](=O)[O-])c1
14 | 2 µg/mL (≈ 5.4 µM) |  | O=C(Nc1ccc(Br)cc1C(=O)O)c1ccc2ccccc2c1
15 | 64 µg/mL (≈ 161 µM) |  | CS(=O)(=O)c1ccc(C(=O)Nc2ccc(Br)cc2C(=O)O)cc1
16 | > 128 µg/mL |  | O=Cc1ccc(C(=O)Nc2ccc(Br)cc2C(=O)O)cc1
17 | 64 µg/mL (≈ 151 µM) |  | COC(=O)c1cc(C(=O)Nc2ccc(Br)cc2C(=O)O)cc([N+](=O)[O-])c1
18 | 32 µg/mL (≈ 81 µM) |  | COc1cc(C(=O)Nc2ccc(Br)cc2C(=O)O)ccc1[N+](=O)[O-]
19 | 32 µg/mL (≈ 89.9 µM) |  | O=C(Nc1ccc(Br)cc1C(=O)O)c1ccc(F)c(F)c1
20 | > 128 µg/mL |  | CSc1ccc(Cl)c(C(=O)Nc2ccc(Br)cc2C(=O)O)c1
21 | > 128 µg/mL |  | COc1cc(C(=O)Nc2ccc(Br)cc2C(=O)O)c([N+](=O)[O-])cc1OC
22 | > 128 µg/mL |  | O=C(O)c1cc(Br)ccc1NC(=O)c1cccc2c1C(=O)c1ccccc1-2

Row | MIC | SA 9218 MIC | SMILES
23 | > 128 µg/mL |  | COc1cc(Br)c(C(=O)Nc2ccc(Br)cc2C(=O)O)cc1OC
24 | 64 µg/mL (≈ 169 µM) |  | CCCOc1ccc(C(=O)Nc2ccc(Br)cc2C(=O)O)cc1
25 | > 128 µg/mL |  | O=Cc1cccc(C(=O)Nc2ccc(Br)cc2C(=O)O)c1
26 | 128 µg/mL (≈ 338 µM) |  | CC(=O)Oc1cccc(C(=O)Nc2ccc(Br)cc2C(=O)O)c1
27 | 16 µg/mL (≈ 43.5 µM) |  | COc1ccc(C(=O)Nc2ccc(Br)cc2C(=O)O)cc1F
28 | 128 µg/mL (≈ 298 µM) |  | COc1ccc(Br)c(C(=O)Nc2ccc(Br)cc2C(=O)O)c1
29 | 16 µg/mL (≈ 32.9 µM) |  | O=C(Nc1ccc(Br)cc1C(=O)O)c1ccc2c(c1)S(=O)(=O)c1ccccc1C2=O
30 | 64 µg/mL (≈ 182 µM) |  | Cc1ccc(F)cc1C(=O)Nc1ccc(Br)cc1C(=O)O
31 | > 128 µg/mL |  | COc1ccc([N+](=O)[O-])c(C(=O)Nc2ccc(Br)cc2C(=O)O)c1
32 | > 128 µg/mL |  | O=C(Nc1ccc(Br)cc1C(=O)O)c1cc(C(F)(F)F)ccc1Cl
33 | 32 µg/mL (≈ 113 µM) |  | N#Cc1ccc(NC(=O)c2cccc(O)c2)c(C(=O)O)c1
34 | > 128 µg/mL |  | CCN(CC)C(=O)c1c(F)ccc(F)c1C(=O)Nc1ccc(Br)cc1C(=O)O
35 | 128 µg/mL (≈ 219 µM) |  | O=C(Nc1ccc(Br)cc1C(=O)O)c1cc(S(=O)(=O)Nc2ccc3c(c2)OCCO3)c(F)cc1Cl
36 | 64 µg/mL (≈ 166 µM) |  | O=C(Nc1ccc(Br)cc1C(=O)O)c1ccc(OC(F)F)cc1
37 | 4 µg/mL (≈ 6.8 µM) |  | O=C(Nc1ccc(Br)cc1C(=O)O)c1cc(S(=O)(=O)Nc2ccc(Cl)cc2)ccc1Br
38 | 8 µg/mL (≈ 16 µM) |  | O=C(Nc1ccc(-c2ccccc2)cc1C(=O)O)c1ccc(S(=O)(=O)N2CCc3ccccc32)cc1 [L-217792]
39 | 16 µg/mL (≈ 31.2 µM) |  | CN(c1ccc(Cl)cc1)S(=O)(=O)c1cccc(C(=O)Nc2ccc(C(F)(F)F)cc2C(=O)O)c1 [PHA-500334]
40 | 1 µg/mL (≈ 2.26 µM) |  | O=C(Nc1ccc(Br)cc1C(=O)O)c1cccc(CSc2ccccc2)c1 [PHA-501684]
41 |  | 2 µg/mL | O=C(Nc1ccc(Br)cc1C(=O)O)c1cccc(OCc2ccccc2)c1 [PHA-501685]
42 | 2 µg/mL (≈ 5.26 µM) |  | CCSc1cccc(C(=O)Nc2ccc(Br)cc2C(=O)O)c1 [PHA-501748]
43 | 8 µg/mL |  | Cl.O=C(Nc1ccc(Br)cc1C(=O)O)c1cccc(SCc2ccncc2)c1 [PHA-502339A]
44 | 2 µg/mL (≈ 4.51 µM) |  | O=C(Nc1ccc(Br)cc1C(=O)O)c1cccc(SCc2ccncc2)c1 [PHA-502339]
